From patent US4216324A, “1-Difluoromethyl-6,7-methylenedioxy-1,4-dihyd ro-4-oxo-3-quinolinecarboxylic acid” (E. I. Du Pont de Nemours and Company, priority 1978, dated 1980)
In brackets after ≈: the same amount, converted by molar mass. Where two headings read alike, the source gives them in different places.

How the values were obtained:
[1] = test system: Bac. subtilis; assay: In vitro minimum inhibitory concentration (MIC), tube dilution test; format: cell-based; conditions: Bacillus subtilis; Bac. subtilis (07A); brain-heart infusion broth, 20hour incubation at 37° C.; read-out: Minimal Inhibitory Test Conens. (MIC)
Experimental: (§1) A. In vitro: mimimum inhibitory concentration (MIC)
(§2) The compound was tested in a standard bacteriological tube dilution test for MIC for a variety of bacteria. Stock cultures of the bacteria listed in Table 1 were grown in bacterial culture media at 37° C. overnight and diluted in culture tubes to a previously determined concentration proper for the test. The compound was added to result in final concentrations of 10, 2, 0.4 and 0.08 μg/ml. These were incubated for 18 hours at 37° C. and then observed to determine if growth of bacteria had occurred. The lowest concentration of the compound that inhibited bacterial growth in the MIC.
(§3) *brain-heart infusion broth, 20hour incubation at 37° C.

[2] = test system: Ser. marcescens; assay: as above; format: cell-based; conditions: Serratia marcescens; Ser. marcescens (22); brain-heart infusion broth, 20hour incubation at 37° C.; read-out: Minimal Inhibitory Test Conens. (MIC)
Experimental: as §1, §2, §3

[3] = test system: Shiq. dysenteriae; assay: as above; format: cell-based; conditions: 20 h, read-out: Minimal Inhibitory Test Conens. (MIC)
Experimental: as §1, §2, §3

[4] = test system: Sal. gallinarum; assay: as above; format: cell-based; conditions: Salmonella enterica, 20 h, brain-heart infusion broth, 20hour incubation at 37° C., read-out: Minimal Inhibitory Test Conens. (MIC)
Experimental: as §1, §2, §3

[5] = test system: Strep. pyogenes; assay: as above; format: cell-based; conditions: Streptococcus pyogenes; Strep. pyogenes (10V); brain-heart infusion broth, 20hour incubation at 37° C.; read-out: Minimal Inhibitory Test Conens. (MIC)
Experimental: as §1, §2, §3

[6] = test system: Proteus vulgaris; assay: as above; format: cell-based; conditions: Proteus vulgaris (14P); brain-heart infusion broth, 20hour incubation at 37° C.; read-out: Minimal Inhibitory Test Conens. (MIC)
Experimental: as §1, §2, §3

[7] = test system: Aero. cloacae; assay: as above; format: cell-based; conditions: Enterobacter cloacae; Aero. cloacae (39A); brain-heart infusion broth, 20hour incubation at 37° C.; read-out: Minimal Inhibitory Test Conens. (MIC)
Experimental: as §1, §2, §3

[8] = test system: Sal. typhimurium; assay: as above; format: cell-based; conditions: Salmonella enterica, 20 h, brain-heart infusion broth, 20hour incubation at 37° C., read-out: Minimal Inhibitory Test Conens. (MIC)
Experimental: as §1, §2, §3

[9] = test system: Staph. aureus; assay: as above; format: cell-based; conditions: Staphylococcus aureus; Staph. aureus (08F); brain-heart infusion broth, 20hour incubation at 37° C.; read-out: Minimal Inhibitory Test Conens. (MIC)
Experimental: as §1, §2, §3

[10] = test system: Kleb. aerobacter; assay: as above; format: cell-based; conditions: Kleb. aerobacter (20F); brain-heart infusion broth, 20hour incubation at 37° C.; read-out: Minimal Inhibitory Test Conens. (MIC)
Experimental: as §1, §2, §3

[11] = test system: E. coli; assay: as above; format: cell-based; conditions: Escherichia coli, 20 h, brain-heart infusion broth, 20hour incubation at 37° C., read-out: Minimal Inhibitory Test Conens. (MIC)
Experimental: as §1, §2, §3

[12] = test system: Sal. typhi; assay: as above; format: cell-based; conditions: Salmonella enterica, TYPHI, 20 h, brain-heart infusion broth, 20hour incubation at 37° C.
Experimental: as §1, §2, §3

[13] = test system: Sal. choleraesuis; assay: as above; format: cell-based; conditions: Salmonella enterica, 20 h, read-out: Minimal Inhibitory Test Conens. (MIC)
Experimental: as §1, §2, §3

[14] = test system: Proteus sp.; assay: as above; format: cell-based; conditions: brain-heart infusion broth, 20hour incubation at 37° C., read-out: Minimal Inhibitory Test Conens. (MIC)
Experimental: as §1, §2, §3

[15] = General pharmacology screen in rats; conditions: in vivo, rat, doses given in mg./kg; for TD50: po
[16] = test system: Pseud. aeruginosa; assay: In vitro minimum inhibitory concentration (MIC), tube dilution test; format: cell-based; conditions: Pseudomonas aeruginosa, 20 h, brain-heart infusion broth, 20hour incubation at 37° C., read-out: Minimal Inhibitory Test Conens. (MIC)

## CCn1cc(C(=O)O)c(=O)c2ccc(C)nc21 [Nalidixic Acid, nalidixic acid]
[1]
  MIC: 0.4 µg/mL (≈ 1.72 µM)
[2]
  MIC: 2 µg/mL (≈ 8.61 µM)
[3]
  MIC: > 10 µg/mL
[4]; Sal. gallinarum (04C)
  MIC: > 10 µg/mL
[4]; Sal. gallinarum (04D)
  MIC: 10 µg/mL (≈ 43.1 µM)
[5]
  MIC: 10 µg/mL (≈ 43.1 µM)
[6]
  MIC: > 10 µg/mL
[7]
  MIC: 2 µg/mL (≈ 8.61 µM)
[8]; Sal. typhimurium (03A)
  MIC: 2 µg/mL (≈ 8.61 µM)
[8]; Sal. typhimurium (03C)
  MIC: 2 µg/mL (≈ 8.61 µM)
[8]; Sal. typhimurium (03K)
  MIC: 2 µg/mL (≈ 8.61 µM)
[9]
  MIC: 2 µg/mL (≈ 8.61 µM)
[10]
  MIC: > 10 µg/mL
[11]; E. coli (06-2B)
  MIC: > 10 µg/mL
[11]; E. coli (06-2F)
  MIC: 2 µg/mL (≈ 8.61 µM)
[11]; E. coli (06-2L)
  MIC: > 10 µg/mL
[11]; E. coli (06-2M)
  MIC: 2 µg/mL (≈ 8.61 µM)
[11]; E. coli (06C)
  MIC: > 10 µg/mL
[11]; E. coli (06I)
  MIC: > 10 µg/mL
[11]; E. coli (06J)
  MIC: 2 µg/mL (≈ 8.61 µM)
[11]; E. coli (06K)
  MIC: 10 µg/mL (≈ 43.1 µM)
[11]; E. coli (06L)
  MIC: 10 µg/mL (≈ 43.1 µM)
[11]; E. coli (06M)
  MIC: 10 µg/mL (≈ 43.1 µM)
[11]; E. coli (06S)
  MIC: 10 µg/mL (≈ 43.1 µM)
[11]; E. coli (06V)
  MIC: 2 µg/mL (≈ 8.61 µM)
[11]; E. coli (06X)
  MIC: 10 µg/mL (≈ 43.1 µM)
[11]; E.coli (06-2D)
  MIC: 10 µg/mL (≈ 43.1 µM)
[12]; read-out: Minimal Inhibitory Test Conens. (MIC), Sal. typhi (02A)
  MIC: 10 µg/mL (≈ 43.1 µM)
[12]; read-out: Minimal Inhibitory Test Conens. (MIC), Sal. typhi (02B)
  MIC: 2 µg/mL (≈ 8.61 µM)
[13]
  MIC: 2 µg/mL (≈ 8.61 µM)
[14]
  MIC: 2 µg/mL (≈ 8.61 µM)
[15]; oral, read-out: ED50 24-Hour Mort.
  LD50 at 24 h: > 324 mg/kg
[15]; read-out: ED50 Ataxia
  TD50: 187 mg/kg
[15]; read-out: ED50 Excitation
  TD50: > 324 mg/kg
[15]; read-out: ED50 Irritability
  TD50: > 324 mg/kg
[15]; rectal temperature, read-out: ED50 Hypertherm.
  TD50: > 324 mg/kg
[15]; rectal temperature, read-out: ED50 Hypotherm.
  TD50: > 324 mg/kg
[15]; vertical bar loss, read-out: ED50 Vert. Bar
  TD50: 360 mg/kg
[16]; Pseud. aeruginosa (11B)
  MIC: > 10 µg/mL
[16]; Pseud. aeruginosa (11C)
  MIC: > 10 µg/mL
[16]; Pseud. aeruginosa (11D)
  MIC: > 10 µg/mL
[16]; Pseud. aeruginosa (11G)
  MIC: > 10 µg/mL
[16]; Pseud. aeruginosa (11I)
  MIC: > 10 µg/mL
[16]; Pseud. aeruginosa (11J)
  MIC: > 10 µg/mL
